Each compound was assayed against T1, KRAS G12C 1-169, his-tagged protein, GDP-loaded (Homo sapiens, UniProt P01116, G12C) (assay: Biochemical assay: covalent binding to KRAS G12C analyzed by mass spectrometry). Settings: compounds 1-47, measured at 24 h.
T1 construct: KRAS G12C 1-169, his-tagged protein, GDP-loaded
T1 sequence (P01116 1-169 isoform P01116-2 G12C): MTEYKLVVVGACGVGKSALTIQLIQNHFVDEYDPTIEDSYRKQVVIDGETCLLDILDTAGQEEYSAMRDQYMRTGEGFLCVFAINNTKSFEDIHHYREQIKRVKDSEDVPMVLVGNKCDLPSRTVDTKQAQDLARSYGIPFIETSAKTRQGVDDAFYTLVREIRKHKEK
In the case of `C=CC(=O)N1CCN(c2ncnc3cc(Cl)c(-c4ccc(Cl)cc4)cc23)CC1` [Compound I-4, 1-(4-(7-chloro-6-(4-chlorophenyl)quinazolin-4-yl)piperazin-1-yl)prop-2-en-1-one], the Binding % is reported as “++++ (++++indicates binding activity greater than 75%)”.
With `C=CC(=O)N1CCN(c2ncnc3cc(Cl)c(-c4cc(F)ccc4Cl)cc23)CC1` [Compound I-23, 1-(4-(7-chloro-6-(2-chloro-5-fluorophenyl)quinazolin-4-yl)piperazin-1-yl)prop-2-en-1-one] the Binding % was “++ (++indicates binding activity greater than 25% and up to 50%)”.
In the case of `C=CC(=O)N1CCN(c2n[nH]c3cc(Cl)c(-c4ccccc4Cl)cc23)CC1` [Compound I-3, 1-(4-(6-chloro-5-(2-chlorophenyl)-1H-indazol-3-yl)piperazin-1-yl)prop-2-en-1-one], the Binding % is reported as “+ (+indicates binding activity from 5% to 25%)”.

Same assay, conditions: compounds 48-246, measured at 2 h
In the case of `C=CC(=O)N1CCN(c2ncnc3cc(-c4ccccc4)c(Cl)cc23)CC1CC#N` (stereo not shown) [Compound I-85, 2-(1-acryloyl-4-(6-chloro-7-phenylquinazolin-4-yl)piperazin-2-yl)acetonitrile], the Binding % is reported as “+++ (+++indicates binding activity greater than 50% and up to 75%)”.
With `C=CC(=O)N1CCN(c2ncnc3cc(-c4c(O)ccc(F)c4F)c(Cl)cc23)CC1` [Compound I-203, 1-(4-(6-chloro-7-(2,3-difluoro-6-hydroxyphenyl)quinazolin-4-yl)piperazin-1-yl)prop-2-en-1-one] the Binding % was “++++ (++++indicates binding activity greater than 75%)”.
`C=CC(=O)N1CCN(c2cnnc3cc(-c4c(O)cccc4F)c(Cl)cc23)CC1` [Compound I-231, 1-(4-(6-chloro-7-(2-fluoro-6-hydroxyphenyl)ciinolin-4-yl)piperazin-1-yl)prop-2-en-1-one] was tested, and the Binding % was “+++ (+++indicates binding activity greater than 50% and up to 75%)”.
With `C=CC(=O)N1CCN(c2ncnc3cc(Cl)c(-c4ccc(Cl)cc4)cc23)C[C@H]1CO` [Compound I-63, (S)-1-(4-(7-chloro-6-(4-chlorophenyl)quinazolin-4-yl)-2-(hydroxymethyl)piperazin-1-yl)prop-2-en-1-one] the Binding % was “+ (+indicates binding activity from 5% to 25%)”.
`C=CC(=O)N1CCN(c2cnnc3cc(-c4c(C)ccc5[nH]ncc45)c(Cl)cc23)CC1` [Compound I-238, 1-(4-(6-chloro-7-(5-methyl-1H-indazol-4-yl)cinnolin-4-yl)piperazin-1-yl)prop-2-en-1-one] was tested, and the Binding % was “+++ (+++indicates binding activity greater than 50% and up to 75%)”.
In the case of `C=CC(=O)N1CCN(c2ncnc3cc(-c4c(O)cccc4F)c(C(F)(F)F)cc23)CC1` [Compound I-208, 1-(4-(7-(2-fluoro-6-hydroxyphenyl)-6-(trifluoromethyl)quinazolin-4-yl)piperazin-1-yl)prop-2-en-1-one], the Binding % is reported as “++++ (++++indicates binding activity greater than 75%)”.
With `C=CC(=O)N1CCN(c2ncnc3cc(-c4cc(Cl)ccc4O)c(Cl)cc23)CC1` [Compound I-118, 1-(4-(6-chloro-7-(5-chloro-2-hydroxyphenyl)quinazolin-4-yl)piperazin-1-yl)prop-2-en-1-one] the Binding % was “+++ (+++indicates binding activity greater than 50% and up to 75%)”.
With `C=CC(=O)N1CCN(c2ncnc3c(Cl)c(-c4ccccc4F)c(Cl)cc23)CC1` [Compound I-210, 1-(4-(6,8-dichloro-7-(2-fluorophenyl)quinazolin-4-yl)piperazin-1-yl)prop-2-en-1-one] the Binding % was “++++ (++++indicates binding activity greater than 75%)”.
`C=CC(=O)N1CCN(c2ncnc3cc(-c4ccccc4C4CC4)c(Cl)cc23)CC1` [Compound I-126, 1-(4-(6-chloro-7-(2-cyclopropylphenyl)quinazolin-4-yl)piperazin-1-yl)prop-2-en-1-one] was tested, and the Binding % was “++++ (++++indicates binding activity greater than 75%)”.
With `C=CC(=O)N1CCN(c2ncnc3cc(-c4c(C)ccc5[nH]ncc45)c(C(F)(F)F)cc23)CC1` [Compound I-237, 1-(4-(7-(5-methyl-1H-indazol-4-yl)-6-(trifluoromethyl)quinazolin-4-yl)piperazin-1-yl)prop-2-en-1-one] the Binding % was “++++ (++++indicates binding activity greater than 75%)”.
With `C=CC(=O)N1CCN(c2ncnc3cc(Cl)c(C4CC4)cc23)CC1C#N` (stereo not shown) [Compound I-55, 1-acryloyl-4-(7-chloro-6-cyclopropylquinazolin-4-yl)piperazine-2-carbonitrile] the Binding % was “++++ (++++indicates binding activity greater than 75%)”.
For `C=CC(=O)N1CCN(c2ncnc3cc(Cl)c(C#N)cc23)CC1C#N` (stereo not shown) [Compound I-53, 4-(4-acryloyl-3-cyanopiperazin-1-yl)-7-chloroquinazoline-6-carbonitrile], the Binding % was “++++ (++++indicates binding activity greater than 75%)”.
`C=CC(=O)N1CCN(c2ncnc3cc(-c4ccc(Cl)cc4)c(Cl)cc23)CC1CC#N` (stereo not shown) [Compound I-111, 2-(1-acryloyl-4-(6-chloro-7-(4-chlorophenyl)quinazolin-4-yl)piperazin-2-yl)acetonitrile] was tested, and the Binding % was “+++ (+++indicates binding activity greater than 50% and up to 75%)”.
For `C=CC(=O)N1CCN(c2ncnc3cc(-c4cc(O)ccc4Cl)c(Cl)cc23)CC1` [Compound I-128, 1-(4-(6-chloro-7-(2-chloro-5-hydroxyphenyl)quinazolin-4-yl)piperazin-1-yl)prop-2-en-1-one], the Binding % was “+++ (+++indicates binding activity greater than 50% and up to 75%)”.
For `C=CC(=O)N1CCN(c2ncnc3cc(-c4c(OC)ccc5[nH]ncc45)c(Cl)cc23)CC1` [Compound I-244, 1-(4-(6-chloro-7-(5-methoxy-1H-indazol-4-yl)quinazolin-4-yl)piperazin-1-yl)prop-2-en-1-one], the Binding % was “+ (+indicates binding activity from 5% to 25%)”.
With `C=CC(=O)N1CCN(c2ncnc3cc(-c4cccc5[nH]ncc45)c(Cl)cc23)CC1` [Compound I-167, 1-(4-(6-chloro-7-(1H-indazol-4-yl)quinazolin-4-yl)piperazin-1-yl)prop-2-en-1-one] the Binding % was “+ (+indicates binding activity from 5% to 25%)”.

Same assay, conditions: compounds 247-342, measured at 30 min
For `Cc1ccc2[nH]ncc2c1-c1c(Cl)cc2c(N3CCN(C(=O)/C=C/CO)CC3)ncnc2c1F` [Compound 315, (E)-1-(4-(6-chloro-8-fluoro-7-(5-methyl-1H-indazol-4-yl)quinazolin-4-yl)piperazin-1-yl)-4-hydroxybut-2-en-1-one], the Binding % was “+ (+indicates binding activity from 5% to 25%)”.
In the case of `C=CC(=O)N1CCN(c2ncnc3c(F)c(-c4c(O)cccc4Cl)c(Cl)cc23)CC1` [Compound I-289, 1-(4-(6-chloro-7-(2-chloro-6-hydroxyphenyl)-8-fluoroquinazolin-4-yl)piperazin-1-yl)prop-2-en-1-one], the Binding % is reported as “+++ (+++indicates binding activity greater than 50% and up to 75%)”.
In the case of `N#C/C(=C\c1cncs1)C(=O)N1CCN(c2ncnc3c(F)c(-c4c(O)cccc4F)c(Cl)cc23)CC1` [Compound I-283, (E)-2-(4-(6-chloro-8-fluoro-7-(2-fluoro-6-hydroxyphenyl)quinazolin-4-yl)piperazine-1-carbonyl)-3-(thiazol-5-yl)acrylonitrile], the Binding % is reported as “++ (++indicates binding activity greater than 25% and up to 50%)”.
With `C=CC(=O)N1CCN(c2ncnc3c(F)c(-c4cc(C(F)F)ccc4F)c(Cl)cc23)CC1` [Compound 307, 1-(4-(6-chloro-7-(5-(difluoromethyl)-2-fluorophenyl)-8-fluoroquinazolin-4-yl)piperazin-1-yl)prop-2-en-1-one] the Binding % was “++ (++indicates binding activity greater than 25% and up to 50%)”.
With `C=CC(=O)N1CCN(c2ncnc3c(F)c(-c4c(C)ccc5[nH]ncc45)c(Cl)cc23)CC1C` (stereo not shown) [Compound 327, 1-(4-(6-chloro-8-fluoro-7-(5-methyl-1H-indazol-4-yl)quinazolin-4-yl)-2-methylpiperazin-1-yl)prop-2-en-1-one] the Binding % was “++ (++indicates binding activity greater than 25% and up to 50%)”.
For `C=CC(=O)N1CCN(c2ncnc3c(F)c(-c4ccc(F)cc4C(F)(F)F)c(Cl)cc23)CC1` [Compound I-275, 1-(4-(6-chloro-8-fluoro-7-(4-fluoro-2-(trifluoromethyl)phenyl)quinazolin-4-yl)piperazin-1-yl)prop-2-en-1-one], the Binding % was “++ (++indicates binding activity greater than 25% and up to 50%)”.
`C=CC(=O)N1CCN(c2nc(-c3cncs3)nc3c(F)c(-c4c(C)ccc5[nH]ncc45)c(Cl)cc23)CC1` [Compound 332, 1-(4-(6-chloro-8-fluoro-7-(5-methyl-1H-indazol-4-yl)-2-(thiazol-5-yl)quinazolin-4-yl)piperazin-1-yl)prop-2-en-1-one] was tested, and the Binding % was “++ (++indicates binding activity greater than 25% and up to 50%)”.

Same assay, conditions: determined at 2 hrs
For `C=CC(=O)N1CC(N2CCN(C(=O)[C@H](C)Nc3cc(CC)c(Cl)cc3O)CC2)C1` [II-69, (S)-1-(3-(4-(2-((4-Chloro-5-ethyl-2-hydroxyphenyl)amino)propanoyl)piperazin-1-yl)azetidin-1-yl)prop-2-en-1-one], the Binding % was “++ (++indicates binding activity greater than 20%)”.
`C=CC(=O)N1CC(N2CCN(C(=O)C3CCCN3c3cc(C4CC4)c(Cl)cc3OC)CC2)C1` (stereo not shown) [II-73, 1-(3-(4-(1-(4-chloro-5-cyclopropyl-2-methoxyphenyl)-pyrrolidine-2-carbonyl)piperazin-1-yl)azetidin-1-yl)prop-2-en-1-one] was tested, and the Binding % was “+ (+indicates binding activity from 5% to 20%)”.

Same assay, conditions: determined at 24 hrs
With `C=CC(=O)N1CCC(N2CCN(C(=O)CNc3cc(CC)c(Cl)cc3O)CC2)C1` (stereo not shown) [II-12, 1-(3-(4-(2-(4-chloro-5-ethyl-2-hydroxyphenylamino)-acetyl)piperazin-1-yl)pyrrolidin-1-yl)prop-2-en-1-one] the Binding % was “+++ (+++indicates binding activity greater than 25% and up to 50%)”.
`C=CC(=O)N1CC(N2CCN(C(=O)CNc3cc(Cl)c(Cl)cc3Cl)CC2)C1` [II-22, 1-(3-(4-(2-(2,4,5-trichlorophenyl-amino)acetyl)-piperazin-1-yl)azetidin-1-yl)prop-2-en-1-one] was tested, and the Binding % was “+ (+indicates binding activity from 5% to 15%)”.
For `C=CC(=O)N1CC(N2CCN(C(=O)CNc3ncc(Cl)s3)CC2)C1` [II-38, 1-(3-(4-(2-(5-chlorothiazol-2-ylamino)acetyl)piperazin-1-yl)azetidin-1-yl)prop-2-en-1-one], the Binding % was “+ (+indicates binding activity from 5% to 15%)”.

From patent publication US10111874B2, “Combination therapies for treatment of cancer” (Araxes Pharma LLC, priority 2014, dated 2018)
Also: test concentration or dose not given here.
